Columns and labels:
Prep1 mRNA = assay: Real-time RT-PCR of Prep1 mRNA in L6 cells; assay type: cell-based, rat; settings: C2cer 10μM, 18h, normalized to GAPDH, three experiments in triplicate
Protocol: (§1) Figure 2 Effect of ceramides on Prep1 and p160 mRNA expression and of Prep1-p160 coprecipitation L6 cells were treated with C2cer (10μM) for 18h and Prep1 (A) or p160 (B) mRNA levels were analyzed by real-time RT-PCR analysis. Data were normalized by the amount of GAPDH mRNA, used as internal control. Bars represent the mean ± SD of three independent experiments, each performed in triplicate. (C) L6 cells were treated with cycloheximide (CHX) at 40μg/mL concentration for 18h and the lysates were analyzed by Western blot with anti-p160 and beta-actin. The autoradiograph shown is representative of three different experiments and subjected to densitometric analysis. (D) Protein lysates from L6 cells treated with C2cer as indicated, were immunoprecipitated with Prep1 antibody and immunoblotted with p160 or Prep1 antibodies. The autoradiograph shown is representative of three different experiments and subjected to densitometric analysis. Asterisks denote statistically significant differences (*p<0.05; **p<0.01).
(§2) Total cellular RNA was isolated from L6 cells by using the RNeasy kit (QIAGEN Sciences, Germany), according to manufacturer instructions. 1μg of cell RNA was reverse-transcribed using Superscript III Reverse Transcriptase (Life Technologies Carlsbad, CA, USA). PCR reactions were analyzed using IQTM SYBR Green Supermix (Bio-Rad, Hercules, CA). […]

p160 mRNA = assay: Real-time RT-PCR of p160 mRNA in L6 cells; assay type: cell-based, rat; settings: C2cer 10μM, 18h, normalized to GAPDH
Protocol: as §1, §2

## CCCCCCCCCCCCC/C=C/[C@@H](O)[C@H](CO)NC(C)=O [C2cer, D-erythro-Sphingosine, N-Acetyl-, reference compound]
Prep1 mRNA
  increase of Prep1 mRNA levels: 3.2 fold
p160 mRNA
  effect on p160 mRNA levels: not affected

— article PMC5641094, “A peptide antagonist of Prep1-p160 interaction improves ceramide-induced insulin resistance in skeletal muscle cells” (Oncotarget, 2017)
